Laboratory results as given in patent US20190314345A1, “CALCINEURIN INHIBITOR AND NON-STEROIDAL ANTI-INFLAMMATORY DRUG TO REDUCE RISK OF POST-IMAGING PANCREATITIS” (UNIVERSITY OF PITTSBURGH - OF THE COMMONWEALTH SYSTEM OF …, priority 2016, published 2019).

Tests used:
pancreatic acinar cells = assay: ATP level measurements in acinar cells; format: cell-based, mouse; conditions: RC 12% for 3.5 hr
Description: Following isolation, pancreatic acinar cells were cultured in DMEM/F12 Medium (0.5 ml/well of a 48-well plate) at 37° C. water bath and treated with RC±FK506. Cells were collected at indicated time points and lysed in 100 lysis buffer (100 mM Tris pH 7.75, 4 mM EDTA). ATP levels were measured from 20 μl aliquots of acinar cell lysates using the ENLITEN luciferase/luciferin reagent (Promega catalog no. FF2021).

PEP model in mice [1] = conditions: in vivo model of PEP in mice; earlier work; cited from earlier work
NF-κB = assay: NF-κB-luciferase activity assay in AR42J cells; format: cell-based; conditions: FK506 24 μM, CsA 16 μM; P<0.05
Description: AR42J cells were differentiated towards an acinar phenotype by administering dexamethasone (100 nM) for 48-72 hr^17. AR42J cells were infected with Ad-NF-κB luciferase 16 h prior to stimulation using a previously described method^12. Following a wash with DMEM/F12 medium, acinar cells were evenly distributed in a 48-well plate and incubated for 30 min at 37° C. They were incubated with RC at varying concentrations and times. NF-κB-luciferase was measured using a commercially available luciferase assay (Promega, Madison, Wis.). Briefly, cells were spun at 1,000 rpm for 5 min, washed with PBS, and lysed using reporter lysis 5× buffer (Promega, catalog no. E397A). Samples were vortexed and spun at 12,000×g for 2 min. The supernatant was plated, and luminescence was measured using a Synergy H1 plate reader (BioTek, Winooski, Vt.) and normalized to […].

[2] = Dissolution in ready-to-use iohexol formulation; format: physicochemical; conditions: FK506 1 μM, CsA 10 μM
PEP model in mice [3] = assay: Intra-ductal RC infusion PEP model in mice: histological severity, serum amylase; format: in vivo, mouse
From the text: The procedure for retrograde infusion into the CBD and pancreatic duct has been described before^14. Briefly, Swiss Webster mice were anesthetized with isoflurane. A midline incision was made to reveal the abdominal cavity. The duodenum was flipped to reveal its distal side and held in place by ligatures. […] needle was inserted through the anti-mesenteric aspect of the duodenum to cannulate the CBD. A small bull dog clamp was applied to the distal CBD (near the duodenum) to prevent back flow of the infusate into the duodenal lumen and to hold the cannula in place. A larger bull dog clamp was applied to the proximal CBD (near the liver) to prevent infusion into the liver and thus to direct flow to the pancreatic duct. Total volumes of 50-100 μl of iohexol, iopamidol, or normal saline (NS) were infused at 10-20 μl per min for 5 min using a P33 perfusion pump (Harvard Apparatus, Holliston, Mass.). Upon completion of the infusion, the bull dog clamps were released. The exterior abdominal wound was closed using 7 mm wound clips, and a single injection of buprenorphine (0.075 mg/kg) was given immediately after the surgery. Mice recovered on a heating pad for 30 min after the procedure. They were given free access to food and water after the surgery. The pancreas, duodenum, and spleen were fixed at room temperature for 24 hr in 4% paraformaldehyde. Paraffin-embedded sections were stained with hematoxylin an eosin (HE) and graded using a 20× objective over 10 separate fields in a blinded fashion. Pancreas tissue was graded for edema, inflammatory infiltrate, and necrosis as described by Wildi et al.^67. Whole blood samples were centrifuged at 1500×g for 5 min at 4° C. Serum amylase was measured using a Phadebas kit (Amersham Pharmacia, Rochester N.Y.) as previously described^68.

pancreatic NF-κB = assay: Imaging pancreatic NF-κB bioluminescence in vivo; design: species or system mouse; conditions: FK506 treatment
Description: An AAV6-NF-κB-luciferase reporter was constructed, expanded in HEK293 cells, and purified as previously described^18-20, 39. A volume of 100 μl of virus (10^12 GCP/ml) was infused into the pancreaticobiliary duct at a rate of 10 μl/min using the same technique of RC infusion described above and recently published^21, 39. After a 5-week recovery from the surgery, mice underwent PEP induction with or without FK506 treatment. At varying time points after the surgery, ranging from 2 to 36 hr, bioluminescence signals were obtained by first giving a subcutaneous injection of luciferin (150 μg/g body weight) in the scruff of the neck 15 min before the start of imaging. The mice were briefly anesthetized with isoflurane and placed in the supine position in a bioluminescent imaging chamber (IVIS spectrum imager; Perkin Elmer, Waltham, Mass.) for 3-10 min. Average pixel intensity was measured from a pancreatic region of interest (in the upper abdomen). Raw time points from each mouse were normalized to its individual baseline intensity at time zero.

calcineurin = assay: NFAT-luciferase activity assay in AR42J cells; format: cell-based; conditions: pretreatment; FK506 24 μM, CsA 16 μM, U73122 5 μM, 2-APB 100 μM, BAPTA 64 μM
Description: Acinar cells were infected with Ad-NFAT-luciferase following a previously described procedure^10, 15, 16. The construct includes a luciferase gene placed downstream of an IL-4 promoter which contains nine tandem NFAT binding sites^10. Acinar cells were incubated with the NFAT-driven luciferase adenovirus for 1.5 hr prior to stimulation. All of the stated inhibitors were added for 30 min prior to stimulation with RC. NFAT-luciferase was measured using the luciferase assay system. Briefly, cells were spun at 1,000 rpm for 5 min, washed with PBS, and lysed using reporter lysis 5× buffer (Promega #E397A, Madison, Wis.). Samples were vortexed and spun at 12,000 g for 2 min. Supernatant was plated, and luminescence was measured using a Synergy H1 plate reader (BioTek, Winooski, Vt.) and normalized to total protein.

AR42J cells = assay: Cell necrosis assay in AR42J cells; format: cell-based; conditions: FK506 24 μM, CsA 16 μM
Description: Acinar cells were incubated in a 48-well plate with 50 μg/ml of propidium iodide (PI) for 30 min prior to addition of RC. Fluorescence was measured at 536 nm excitation and 617 nm emission wavelengths over time a time course of up to 6 hr. Fluorescence was measured after cell lysis with 0.5% Triton-X 100 was used to normalize the results relative to total DNA.

C=CC[C@@H]1/C=C(\C)C[C@H](C)C[C@H](OC)[C@H]2O[C@@](O)(C(=O)C(=O)N3CCCC[C@H]3C(=O)O[C@H](/C(C)=C/[C@@H]3CC[C@@H](O)[C@H](OC)C3)[C@H](C)[C@@H](O)CC1=O)[C@H](C)C[C@@H]2OC [FK506, tacrolimus]
effect on RC-induced ATP depletion (pancreatic acinar cells): failed to prevent ATP depletion
effect of systemic frequent prophylactic dosing on PEP (PEP model in mice [1]): prevented PEP
reduction of RC-induced NF-κB (NF-κB): 73%
dissolution in the ready-to-use iohexol formulation [2]: easily dissolved
effect when given after PEP induction (PEP model in mice [3]; FK506 1 mg/kg after the infusion of RC): reduces pancreatic inflammation
serum amylase (PEP model in mice [3]; FK506 1 mg/kg intraperitoneal 1 hr prior and 2.5, 5.5, 12 hr after RC infusion): reduced down to the level of the NS sham condition
histological severity of the pancreas following pancreatitis (PEP model in mice [3]; FK506 1 mg/kg intraperitoneal 1 hr prior and 2.5, 5.5, 12 hr after RC infusion, 24 hr): prevented
effect of FK506 compared with therapeutic indomethacin on RC-induced pancreatitis (PEP model in mice [3]; FK506 1 mg/kg, indomethacin 7 mg/kg IP after RC infusion): as robust
effect on RC-induced pancreatic NF-κB (pancreatic NF-κB): markedly blunted
effect on RC (6%)-induced NFAT-luciferase activity (calcineurin): prevented
effect on RC (12%)-induced acinar cell necrosis (AR42J cells): prevented
